Experimental data from patent US11564913B2, “Compositions and methods for treating cancer” (Children's Hospital Medical Center, priority 2019, dated 2023).

Legend:
[1] = test system: H2122 lung cancer xenografts; test: H2122 xenograft mouse model; assay type: in vivo, mice
Text: FIG. 8: IODVA1 inhibits tumor growth of human breast and lung cancer xenografts. […] (B) Tumors were also stained for Ki67 as a proliferation marker (top panel). […] (C) Quantification of Ki67-positive and cleaved caspase 3-positive cells of tumors shown in (B). […] Animals began treatment when tumors became detectable at 10 days post-injection (*, p<0.05). […] IODVA1 treated tumors also had fewer proliferating cells compared to control vehicle treated animals, as determined by immunohistochemical staining for Ki67 (bottom) and increased intratumoral fibrosis. Representative images were taken at 100× magnification, scale bar is 200 μm. (F) Quantification of Ki67+ cells in control and IODVA1 treated tumors shown in (E).
The lung cancer mouse model was generated by injecting the lung cancer H2122 cells at the right and left flanks of NSG mice. These cells harbor the KRAS^G12C mutation and form aggressive tumors. Mice were treated with IODVA1 or with vehicle control every other day for 14 days. […]
Human lung cancer cell line NCI-H2122 (ATCC) harboring biallelic KRAS^G12C mutations were cultured in RPMI-1640 supplemented with 10% FBS. […] Tumor size was measured using digital calipers and tumor volume estimated using the formula (length×width^2)/2. […] A minimum of 20 random fields were used for quantification. […]

Rac1 = target: T1, Rac1 (Homo sapiens, UniProt P63000); test: Microscale thermophoresis (MST) binding; details: no saturation at highest concentration tested, read-out: Kd, best estimate
T1 construct: His6 (N); made in house
Experimental: FIG. 14: IODVA1 targets Vav3 in vitro and in vivo. (A) Ba/F3 cells expressing empty vector Mieg3 or p190-BCR-ABL1 were treated with vehicle control or IODVA1 (IO1, 3 μM) for 30 min and incubated with GST-Rac and glutathione beads. Beads were washed and the protein complexes were separated on SDS-PAGE and immunoblotted for pVav3. Input Vav3 was used as control. (B) Binding affinity (Kd) between IODVA1 and Vav3 (green), LARG (brown), and RacGDP (blue). […] Error bars=SD; N=3. (C) Quantification of the average number of colonies made by bone marrow wild-type (black) and Vav3^−/− (lilac) p190-BCR-ABL1 leukemic cells treated with vehicle control or IODVA1 (IO1, 1 and 3 μM) (* p≤0.05; ** p≤0.01; *** p≤0.001; ns, not significant). (D) Representative histogram data of the cell cycle analysis of wild-type (black and grey bars) and Vav3^−/− (dark and light lilac) bone marrow cells expressing p190-BCR-ABL and treated with vehicle control or IODVA1 (IO1, 3 μM) for 20 h. (E) Quantification by densitometry of the pVav3 band from FIG. 14A. […]
To test this hypothesis, we measured its binding affinity (Kd) to recombinant Vav3 and Rac1 using microscale thermophoresis (MST); the catalytic domain (DH/PH) of the RhoGEF LARG served as negative control. […] Second, like Vav3, LARG contains a DH/PH domain responsible for the exchange activity such that any non-specific binding to this domain should be detected. […]

[2] = test system: Rac-dependent and -independent effectors in EGFP+/B220+ LDBM cells; test: Pharmacodynamic phospho-flow analysis of leukemic progenitor cells from treated p210(T315I) mice; assay type: in vivo; details: two-week treated mice
Text: LDBM cells were transduced with TKI-resistant p210-BCR-ABL1(T315I) (gatekeeper mutant) and transplanted into recipient mice as in FIG. 10. Pumps were surgically introduced into mice (N=5 per treatment group) and treatment lasted 28 days or two rounds of pumps. After 28 days, mice were monitored without any additional treatment. (A) Kaplan-Meier survival plot of imatinib-resistant mice. […] (B) Flow cytometric analysis of leukemic progenitor (EGFP^+) B-cells in peripheral blood (PB) at the indicated week. Only IODVA1-treated mice remained alive for analysis at weeks 5, 7, and 10.
To assess signaling pathways affected by IODVA1. EGFP^+/B220^+ LDBM cells were isolated from two-week treated p210(T315I) mice, stained with phospho-antibodies against the pro-proliferative Rac-dependent effectors JNK, PAK, 4EBP, and S6 and the Rac-independent effectors ERK1/2, STAT3, STAT5, p38, and AKT, and analyzed by flow cytometry. […] Phosphorylation levels of p38, ERK, STAT3, STAT5, and AKT were not affected by IODVA1. […] Taken together, IODVA1 not only overcomes TKI-resistance but also eliminates TKI-resistant leukemic stem/progenitor cells likely by acting on imatinib-independent growth signaling pathways that involve Rac effectors.

## OC1(c2ccccn2)N=C(Nc2nc3ccccc3[nH]2)N=C1c1ccccn1 (centres unmarked) [IODVA1, (Z)-2-((1H-benzo[d]imidazol-2-yl)imino)-4,5-di(pyridin-2-yl)-2,5-dihydro-1H-imidazol-5-ol]
[1]; IP 250 μl of 1 mM every other day for 14 days
  tumor volume: significant decrease
[1]; IP every other day for 14 days
  number of Ki67-positive tumor cells: significant decrease
Rac1
  Kd: ~35.5 µM
[2]
  phosphorylation levels of p38, ERK, STAT3, STAT5, and AKT: not affected
[2]; p=0.0012
  decrease in pS6: 17.8%
[2]; p=0.0016
  decrease in pPAK: 56%
[2]; p=0.0029
  decrease in pJNK: 55%
[2]; p=0.037
  decrease in p4EBP: 20.3%
